Test system: affected regions of atopic patients
Assay: itch and area of inflammation after 1 week of application in atopic patients
Assay type: in vivo, human
Conditions: number of 3 atopic patients; daily application for 1 week
Method: The dermatologic preparations of Examples 1 to 3 and the dermatologic preparations for comparison of Reference Examples 1 to 3 were evaluated for itch and the area of inflammation 1 week after application.
To the affected regions of 3 atopic patients (1 adult, 1 adult, and 1 child), was applied an adequate amount of each oil produced in Examples 1 to 3 and Reference Examples 1 to 3 after bathing every day. After application for 1 week, itch and the inflammatory area were evaluated. During the treatment period, the drugs used previously were continued. In the child who could not describe itch, itch was evaluated based on the behavior of scratching at the affected region.

## 1,3-dioctanoyl-2-eicosapentaenoyl glycerol [Example 2]
  inflammatory area: no change: 0 patients
  inflammatory area: reduced: 3 patients
  inflammatory area: widened: 0 patients
  itch: improved: 3 patients
  itch: no change: 0 patients
  itch: worsened: 0 patients
